Reference: patent US10472334B2, “Small molecules for inhibiting male fertility” (The University of North Carolina at Chapel Hill, priority 2014, dated 2019)

Legend:
[1] = In vitro absorption, Caco-2 permeability and recovery; format: in vitro ADME; conditions: human, Caco-2; read-out: permeability to Caco-2 cells
Experimental: (§1) The in vitro absorption was measured using methods described in Hidalgo, I. J. et al. (1989), Gastroenterology, 96: 736-749.
(§2) The apparent permeability coefficient (Papp) of the test compound was calculated as follows:
(§3) [formula] where VR is the volume of the receiver chamber. CR, end is the concentration of the test compound in the receiver chamber at the end time point, Δt is the incubation time and A is the surface area of the cell monolayer. CD, mid is the calculated mid-point concentration of the test compound in the donor side, which is the mean value of the donor concentration at time 0 minute and the donor concentration at the end time point. CR, mid is the mid-point concentration of the test compound in the receiver side, which is one half of the receiver concentration at the end time point. Concentrations of the test compound were expressed as peak areas of the test compound.
(§4) The recovery of the test compound was calculated as follows: […]
(§5) where VD and VR are the volumes of the donor and receiver chambers, respectively. CD,end is the concentration of the test compound in the donor sample at the end time point. CR,end is the concentration of the test compound in the receiver sample at the end time point. CD0 is the concentration of the test compound in the donor sample at time zero. Concentrations of the test compound are expressed as peak areas of the test compound. […]

[2] = test system: Caco-2 cells; test: as above; format: in vitro ADME
Experimental: as §1, §2, §3, §4, §5

[3] = In vitro metabolism, human liver microsomes; format: in vitro ADME; conditions: read-out: Human liver microsomes metabolism T½
Experimental: In vitro metabolism was evaluated using the methods described in Obach, R. S. et al. (1997), J. Pharmacol. Exp. Ther., 283: 46-58.
Intrinsic Clearance (microsomes, S9, cryopreserved hepatocytes, recombinant CYP, recombinant UGT) Metabolic stability, expressed as percent of the parent compound remaining, was calculated by comparing the peak area of the compound at the time point relative to that at time-O. The half-life (T½) was estimated from the slope of the initial linear range of the logarithmic curve of compound remaining (%) vs. time, assuming the first-order kinetics. The apparent intrinsic clearance (CLint, in μL/min/pmol, μL/min/mg or μL/min/Mcell) was calculated according to the following formula: […]

[4] = test system: human spermatozoa; test: Internal sperm pH detection with BCECF; format: cell-based; conditions: FIG. 6, 10 and 20 μM
Experimental: A series of experiments was performed to determine the mechanism of action of the compounds described herein. The experiments were carried out as described in O'Rand and Widgren, “Loss of Calcium in Human Spermatozoa via EPPIN, the Semenogelin Receptor,” Biology of Reproduction, (2012) 86(2):55, 1-7.
The AM ester derivative of the pH-sensitive dye BCECF (5 μM; Molecular Probes) was used to detect changes in the pH in spermatozoa treated with SEMG1. Spermatozoa were loaded with BCECF-AM for 30 min in bovine serum albumin-free medium, centrifuged to remove extracellular dye, and resuspended in M16M. Changes to 1.13105-0.93105 spermatozoa/well in 50 μl of M16M at 378 C after treatment with 3.2 μM SEMG1 were monitored in a BioTek (Winookski, Vt.) Synergy2 Multiplatform automated plate reader (with heater and shaker); wells were excited using a 485/20 filter and emission read with a 528/20 filter. Fluorescence was read immediately and recorded every 10 sec; readings for each time point were normalized, averaged, and expressed as percentages of decrease in relative fluorescent units. Data from three ejaculate samples are reported.

Papp [1]: 0.2 ×10⁻⁶ cm/s | Recovery from the permeability assay [2]: 93% | half-life [3]: 41 min
SMILES: CCOC(=O)CSc1nc(NNC(=O)OC)nc(Nc2ccc(NC(=O)OC)c(O)c2)n1 [TZ4_121, [4-(3-Hydroxy-4-methoxycarbonylamino-phenylamino)-6-(N′methoxycarbonyl-hydrazino)-1,3,5-triazin-2-ylsulfanyl]-acetic acid ethyl ester]
change in internal sperm pH [4]: significant decrease in pH
